Reference: ChEMBL document CHEMBL1201862, “PubChem BioAssay data set” (2004)
Calls of active or inactive are those of the source.

What was measured:
[1] = viability loss in CEM21 cells – cell-based, CellTiter-Glo luminescence, cherry-picked, cytotoxicity control for viral fusion inhibitor project, dose response (AID 652042); assay type: functional;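 note: potency for signal decrease meaning cytotoxicity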
[2] = HIV-1 AD8 envelope cell-cell fusion blockers – cherry-pick, dose response (AID 652062); assay type: functional, cell-based;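 note: luciferase signal from cell-cell fusion driven by HIV-1 clade B AD8 Env; potency is for inhibitors of fusion seen as a drop in luminescence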
[3] = blockers of HIV-1 ZM109 envelope-driven cell-cell fusion – HeLa effector, CEM target cells, luciferase, cherry-pick, dose response (AID 652058); assay type: functional, cell-based;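 note: luciferase signal from HIV-1 Env mediated cell-cell fusion of effector and target cells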
[4] = off-target signal loss in HeLa-CEM21 co-culture – HeLa F-luc CTL cells, cherry-picked, counter-screen for HIV-1 Env fusion inhibitor project, dose response (AID 652040); assay type: functional, cell-based;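 note: potency for signal decrease marking cytotoxic or nonspecific inhibition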
[5] = blockers of HIV-1 envelope-mediated cell-cell fusion – cherry-pick, dose response (AID 652057); assay type: functional, cell-based
[6] = molecular target: T1, Nuclear receptor subfamily 0 group B member 1 (Homo sapiens, UniProt P51843); assay type: functional, cell-based;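 note: HEK293T cells transfected with SF-1 and DAX-1 plus StAR promoter luciferase reporter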
T1 sequence (P51843 whole entry): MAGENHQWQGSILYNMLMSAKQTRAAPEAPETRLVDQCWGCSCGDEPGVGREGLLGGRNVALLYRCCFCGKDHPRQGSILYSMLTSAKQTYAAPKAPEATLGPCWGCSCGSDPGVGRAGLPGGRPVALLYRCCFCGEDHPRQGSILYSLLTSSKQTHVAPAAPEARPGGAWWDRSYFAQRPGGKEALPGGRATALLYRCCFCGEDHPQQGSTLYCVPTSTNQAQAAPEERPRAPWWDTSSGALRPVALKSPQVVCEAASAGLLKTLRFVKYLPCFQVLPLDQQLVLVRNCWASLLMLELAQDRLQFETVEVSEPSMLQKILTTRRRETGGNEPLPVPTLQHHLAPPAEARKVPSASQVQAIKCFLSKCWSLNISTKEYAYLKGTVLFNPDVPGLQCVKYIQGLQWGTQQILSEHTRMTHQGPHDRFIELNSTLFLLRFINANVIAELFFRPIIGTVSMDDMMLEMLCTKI

cells = assay type: functional, cell-based
[7] = molecular target: T2, Long-chain-fatty-acid--AMP ligase FadD28 (Mycobacterium tuberculosis, UniProt P9WQ59); assay: Fluorescence polarization aasay to screen for inhibitors that compete for the binding of FadD28 to a bisubstrate Measured in Biochemical System Using Plate Reader - 2147-01_Inhibitor_Dose_CherryPick_Activity.; assay type: functional, Mycobacterium tuberculosis H37Rv
T2 sequence (P9WQ59 whole entry): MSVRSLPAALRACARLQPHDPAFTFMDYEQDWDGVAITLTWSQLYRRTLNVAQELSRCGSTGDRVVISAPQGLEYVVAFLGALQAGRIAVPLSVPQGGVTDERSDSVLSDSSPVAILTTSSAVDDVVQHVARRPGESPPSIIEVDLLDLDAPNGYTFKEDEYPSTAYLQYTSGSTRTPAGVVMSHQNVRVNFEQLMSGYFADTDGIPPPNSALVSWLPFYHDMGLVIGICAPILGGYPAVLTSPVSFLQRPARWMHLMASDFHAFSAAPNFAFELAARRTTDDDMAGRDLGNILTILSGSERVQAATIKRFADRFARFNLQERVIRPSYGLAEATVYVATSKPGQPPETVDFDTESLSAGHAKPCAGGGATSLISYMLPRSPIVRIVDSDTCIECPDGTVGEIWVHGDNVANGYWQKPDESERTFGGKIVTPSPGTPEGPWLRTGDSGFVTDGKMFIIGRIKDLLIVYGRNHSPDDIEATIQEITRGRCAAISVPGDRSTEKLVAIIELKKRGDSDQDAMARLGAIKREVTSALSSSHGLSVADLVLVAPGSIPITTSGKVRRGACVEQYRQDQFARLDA

[8] = molecular target: DNA (cytosine-5)-methyltransferase 1 (Homo sapiens, UniProt P26358); assay: inhibition of DNA methylation by DNMT1 – biochemical, fluorescent molecular beacon, confirmation (AID 602386); assay type: functional
Sequence of DNA (cytosine-5)-methyltransferase 1 (P26358 whole entry): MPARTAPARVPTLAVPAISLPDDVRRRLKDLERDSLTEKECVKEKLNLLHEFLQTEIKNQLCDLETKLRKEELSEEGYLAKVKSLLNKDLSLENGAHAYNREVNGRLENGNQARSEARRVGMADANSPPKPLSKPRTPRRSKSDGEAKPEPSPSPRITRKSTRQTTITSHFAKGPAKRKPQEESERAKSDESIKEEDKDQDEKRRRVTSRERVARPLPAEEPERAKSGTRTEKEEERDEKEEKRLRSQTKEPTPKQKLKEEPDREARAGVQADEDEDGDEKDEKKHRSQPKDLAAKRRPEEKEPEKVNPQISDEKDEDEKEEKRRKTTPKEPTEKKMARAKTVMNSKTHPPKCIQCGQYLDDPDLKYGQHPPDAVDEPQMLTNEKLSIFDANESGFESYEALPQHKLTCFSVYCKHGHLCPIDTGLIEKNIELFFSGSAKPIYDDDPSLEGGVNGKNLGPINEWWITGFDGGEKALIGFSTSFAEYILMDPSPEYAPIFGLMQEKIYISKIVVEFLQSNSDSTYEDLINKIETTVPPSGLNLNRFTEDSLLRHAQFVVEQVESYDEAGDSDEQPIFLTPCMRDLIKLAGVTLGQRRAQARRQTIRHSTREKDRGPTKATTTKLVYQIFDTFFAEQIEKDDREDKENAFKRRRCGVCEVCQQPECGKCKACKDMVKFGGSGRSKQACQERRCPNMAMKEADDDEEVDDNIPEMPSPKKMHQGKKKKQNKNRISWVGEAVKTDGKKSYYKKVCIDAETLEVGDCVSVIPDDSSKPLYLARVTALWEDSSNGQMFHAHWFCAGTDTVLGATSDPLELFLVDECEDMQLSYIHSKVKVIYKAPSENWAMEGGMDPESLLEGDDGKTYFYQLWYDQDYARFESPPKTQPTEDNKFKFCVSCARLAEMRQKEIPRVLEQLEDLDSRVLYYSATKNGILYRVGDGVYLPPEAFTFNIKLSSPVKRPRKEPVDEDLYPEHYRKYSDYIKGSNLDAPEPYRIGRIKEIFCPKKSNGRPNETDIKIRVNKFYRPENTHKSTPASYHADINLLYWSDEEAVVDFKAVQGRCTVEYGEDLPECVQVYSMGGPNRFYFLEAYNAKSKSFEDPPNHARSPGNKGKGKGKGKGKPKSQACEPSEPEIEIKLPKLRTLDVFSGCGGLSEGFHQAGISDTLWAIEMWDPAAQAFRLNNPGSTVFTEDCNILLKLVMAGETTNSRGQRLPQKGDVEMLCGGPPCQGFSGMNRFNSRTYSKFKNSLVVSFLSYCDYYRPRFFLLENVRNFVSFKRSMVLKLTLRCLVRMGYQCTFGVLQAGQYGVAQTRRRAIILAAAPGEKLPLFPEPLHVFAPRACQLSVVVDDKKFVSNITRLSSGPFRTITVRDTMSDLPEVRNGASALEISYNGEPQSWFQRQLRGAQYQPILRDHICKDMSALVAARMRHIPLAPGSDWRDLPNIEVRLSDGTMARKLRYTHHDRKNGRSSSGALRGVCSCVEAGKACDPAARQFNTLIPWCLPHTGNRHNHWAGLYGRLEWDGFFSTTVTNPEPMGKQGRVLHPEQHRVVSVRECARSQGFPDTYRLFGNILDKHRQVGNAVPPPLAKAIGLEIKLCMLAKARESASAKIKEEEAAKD

[9] = general mammalian cell viability loss – activator set, cherry-pick, cytotoxicity control for miR-122 modulator project, dose response (AID 720690); assay type: functional, cell-based;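 note: HEK293T human cells scored for general mammalian cytotoxicity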
HEK293 [10] = assay: NOD2 signaling inhibitors in MDP-stimulated cells, cell-based, uHTS, luminescence (AID 2001); assay type: functional; settings: Homo sapiens
Streptokinase A = molecular target: T3, Streptokinase A (Streptococcus pyogenes serotype M1, UniProt P10520); assay: viability-normalized secreted streptokinase activity reduction – plasminogen activation absorbance, OD405, dose response (AID 1914); assay type: functional, Streptococcus pyogenes M1 GAS;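 note: secreted streptokinase activity via plasminogen activation per viability signal from cell pellet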
T3 sequence (P10520 whole entry): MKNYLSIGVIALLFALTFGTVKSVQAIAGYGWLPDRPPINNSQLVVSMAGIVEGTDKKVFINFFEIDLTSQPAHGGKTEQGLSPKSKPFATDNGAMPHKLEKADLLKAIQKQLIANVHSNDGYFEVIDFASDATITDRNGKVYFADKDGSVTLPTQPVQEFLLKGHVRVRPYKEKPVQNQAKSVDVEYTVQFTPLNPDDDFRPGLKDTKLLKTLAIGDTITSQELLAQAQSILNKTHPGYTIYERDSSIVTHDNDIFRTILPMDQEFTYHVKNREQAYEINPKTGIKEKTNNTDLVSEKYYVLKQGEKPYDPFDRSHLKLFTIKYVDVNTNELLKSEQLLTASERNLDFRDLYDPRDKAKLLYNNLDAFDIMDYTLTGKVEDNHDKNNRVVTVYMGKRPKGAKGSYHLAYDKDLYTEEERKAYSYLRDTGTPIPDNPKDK

Streptococcus = assay: GAS UMAA2166 growth inhibition – luminescence, BacTiterGlo, counter-screen for streptokinase expression inhibitor project, dose response (AID 1915); assay type: functional, organism-based;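 note: potency for reduction of bacterial viability or growth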
HEK293 [11] = assay: inhibition of NOD1-driven NF-kB reporter – cell-based, luminescence, uHTS, primary screen (AID 1578); assay type: functional; settings: Homo sapiens
INS1 = assay: INS-1E survival protection against cytokine death – cell-based, luminescence, retest, dose response (AID 449756); assay type: functional; settings: Rattus norvegicus;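 note: cell death triggered by IL-1 beta plus TNF-alpha plus IFN-gamma mixture; protective hits raise ATP signal compared with cytokine alone wells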
[12] = test system: Streptococcus sp. 'group A'; assay: Streptococcus pyogenes SK(-)GAS viability under kanamycin – luminescence, BacTiterGlo, confirmation, counter-screen for streptokinase expression inhibitor project, dose response (AID 1900); assay type: functional, organism-based; settings: read-out: EC50
HEK293 [13] = assay: cells; assay type: functional, cell-based; settings: Homo sapiens
HEK293 [14] = assay: cells; assay type: functional, cell-based; settings: Homo sapiens; remark: listed apart in the source
[15] = general mammalian cell viability loss – inhibitor set, cherry-pick, set 2, cytotoxicity control for miR-122 modulator project, dose response (AID 720697); assay type: functional, cell-based
[16] = activation of miR-122 Renilla sensor silencing – cell-based, Huh7 psiCHECK-miR122, Renilla luciferase, cherry-picked, dose response (AID 651956); assay type: functional;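 note: huh7 hepatoma cells stably carrying a psiCHECK-2 miR-122 sensor plasmid; renilla luciferase signal reporting endogenous miR-122 activity after 48 h compound exposure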
[17] = P. falciparum Dd2 growth inhibitors, dose response, SYBR Green, cherry-picked samples (AID 1159567); assay type: functional, cell-based
[18] = toxicity to human hepatoma HepG2 cells – cell-based, cherry-picked samples, cytotoxicity control, dose response (AID 1159577); assay type: functional
Albumin = Albumin (Bos taurus, UniProt P02769); assay: Counterscreen for inhibitors of T-cell receptor (TCR)-CD3 interaction: Fluorescence-based biochemical high throughput dose response assay to identify inhibitors of T-cell receptor (TCR)-CD3 interaction using a TAMRA-labeled BSA probe.; assay type: functional
Sequence of Albumin (P02769 whole entry): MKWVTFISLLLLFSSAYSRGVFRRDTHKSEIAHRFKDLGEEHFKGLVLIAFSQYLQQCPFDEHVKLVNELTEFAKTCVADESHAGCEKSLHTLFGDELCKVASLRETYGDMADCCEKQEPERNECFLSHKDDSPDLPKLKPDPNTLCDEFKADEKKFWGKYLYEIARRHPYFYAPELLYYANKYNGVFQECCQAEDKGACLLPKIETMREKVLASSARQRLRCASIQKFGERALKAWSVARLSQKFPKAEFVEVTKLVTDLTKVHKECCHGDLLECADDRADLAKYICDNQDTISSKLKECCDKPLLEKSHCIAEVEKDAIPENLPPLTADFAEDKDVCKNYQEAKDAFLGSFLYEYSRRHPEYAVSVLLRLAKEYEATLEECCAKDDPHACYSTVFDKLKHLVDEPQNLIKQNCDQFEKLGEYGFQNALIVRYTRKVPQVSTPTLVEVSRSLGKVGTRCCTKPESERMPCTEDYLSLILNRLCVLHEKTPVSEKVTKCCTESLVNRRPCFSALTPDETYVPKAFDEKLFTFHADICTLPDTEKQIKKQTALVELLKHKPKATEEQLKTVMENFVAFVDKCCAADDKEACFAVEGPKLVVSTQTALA

[19] = NIH-3T3 fibroblast cytotoxicity, dose response, cytotoxicity control, cell-based, fluorescence, Alamar Blue, secondary assay (AID 2327); assay type: functional;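 note: NIH-3T3 mouse fibroblasts cultured with fluconazole at 8 µg/mL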
[20] = fluconazole-exposed Candida albicans growth modulators – fluorescence, retest, confirmation (AID 2467); assay type: functional, cell-based
[21] = molecular target: SWI/SNF-related matrix-associated actin-dependent regulator of chromatin subfamily A member 2 (Homo sapiens, UniProt P51531); assay: Luminescence-based cell-based high throughput dose response assay to identify activators of the function of SWI/SNF related, matrix associated, actin dependent regulator of chromatin, subfamily a, member 2 (SMARCA2, BRM).; assay type: functional
Sequence of SWI/SNF-related matrix-associated actin-dependent regulator of chromatin subfamily A member 2 (P51531 whole entry): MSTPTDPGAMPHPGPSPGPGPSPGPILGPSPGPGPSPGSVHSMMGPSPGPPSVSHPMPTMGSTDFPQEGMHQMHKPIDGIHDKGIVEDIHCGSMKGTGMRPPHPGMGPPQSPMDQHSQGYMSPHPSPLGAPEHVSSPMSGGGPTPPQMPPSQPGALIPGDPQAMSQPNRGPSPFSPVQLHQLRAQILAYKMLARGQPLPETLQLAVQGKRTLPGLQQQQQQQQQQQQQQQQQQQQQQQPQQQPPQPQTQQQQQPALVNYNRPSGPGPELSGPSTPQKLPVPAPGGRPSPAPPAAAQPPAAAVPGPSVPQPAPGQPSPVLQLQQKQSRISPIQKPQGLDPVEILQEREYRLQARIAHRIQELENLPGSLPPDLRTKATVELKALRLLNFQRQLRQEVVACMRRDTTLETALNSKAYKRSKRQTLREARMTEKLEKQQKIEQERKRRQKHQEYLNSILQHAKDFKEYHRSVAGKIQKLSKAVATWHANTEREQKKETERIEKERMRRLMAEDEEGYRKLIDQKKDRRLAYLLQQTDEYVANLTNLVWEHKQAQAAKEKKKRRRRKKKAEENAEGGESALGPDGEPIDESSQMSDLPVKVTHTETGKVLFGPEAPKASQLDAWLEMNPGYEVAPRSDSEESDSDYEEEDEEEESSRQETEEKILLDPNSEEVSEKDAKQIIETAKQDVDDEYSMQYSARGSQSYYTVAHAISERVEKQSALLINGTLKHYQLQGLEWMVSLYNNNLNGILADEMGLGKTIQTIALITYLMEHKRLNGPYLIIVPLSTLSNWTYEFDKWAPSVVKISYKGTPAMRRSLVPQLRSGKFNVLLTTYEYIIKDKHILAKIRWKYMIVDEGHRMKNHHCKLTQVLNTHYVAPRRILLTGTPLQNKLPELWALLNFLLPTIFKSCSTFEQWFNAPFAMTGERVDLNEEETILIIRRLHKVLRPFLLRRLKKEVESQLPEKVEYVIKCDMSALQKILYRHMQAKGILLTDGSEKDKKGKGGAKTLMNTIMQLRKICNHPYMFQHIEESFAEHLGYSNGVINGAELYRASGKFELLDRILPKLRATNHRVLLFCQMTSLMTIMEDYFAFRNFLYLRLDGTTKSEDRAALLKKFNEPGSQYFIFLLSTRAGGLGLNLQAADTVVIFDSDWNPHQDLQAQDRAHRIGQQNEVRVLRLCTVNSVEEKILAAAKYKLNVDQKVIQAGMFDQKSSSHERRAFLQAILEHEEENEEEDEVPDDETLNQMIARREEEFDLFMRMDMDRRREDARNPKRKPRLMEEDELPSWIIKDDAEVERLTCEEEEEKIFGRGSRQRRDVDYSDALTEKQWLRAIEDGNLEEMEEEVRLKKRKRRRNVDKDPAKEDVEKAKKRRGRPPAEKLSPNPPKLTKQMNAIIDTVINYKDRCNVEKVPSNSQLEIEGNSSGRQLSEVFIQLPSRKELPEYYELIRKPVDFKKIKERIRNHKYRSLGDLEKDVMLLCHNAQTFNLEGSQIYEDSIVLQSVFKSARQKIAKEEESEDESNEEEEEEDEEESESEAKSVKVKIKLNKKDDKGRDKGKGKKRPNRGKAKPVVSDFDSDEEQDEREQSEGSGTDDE

[22] = Counterscreen for activators of the function of SWI/SNF related, matrix associated, actin dependent regulator of chromatin, subfamily a, member 2 (SMARCA2, BRM): Luminescence-based cell-based high throughput dose response assay to identify non-selective compounds using the VP16 reporter assay.; assay type: functional

## C[C@H](CO)N1C[C@H](C)[C@H](CN(C)S(=O)(=O)c2ccccc2)Oc2ccc(NC(=O)NC3CCCCC3)cc2CC1=O
[1]
  AC50: 46.9 µM (active)
[2]
  AC50: 4.13 µM (active)
[3]
  AC50: 0.98 µM (active)
[4]
  AC50: 2.01 µM (active)
[5]
  AC50: 1.59 µM (active)

## COc1ccc(C(=O)NCCS(=O)(=O)NCCc2ccccc2)cc1
[6]
  IC50: > 67.5 µM (inactive)
cells
  IC50: > 67.5 µM (inactive)

## CCOC(=O)NC1CCc2cc(OC)c(OC)c(OC)c2-c2ccc(SC)c(=O)cc21 (centres undefined)
[6]
  IC50: > 0.0309 µM (active)
cells
  IC50: > 67.5 µM (inactive)

## Cc1ccc2c(C)nc(Nc3nc(O)cc(CSc4nnnn4-c4ccccc4)n3)nc2c1
[1]
  AC50: 25.2 µM (active)
[3]
  AC50: 12.5 µM (active)
[4]
  AC50: 25.3 µM (active)
[5]
  AC50: 20.5 µM (active)

## Cc1ccc(S(=O)(=O)N2[C@@H](c3cccc(Cl)c3)C(C(=O)O)=CC[C@H]2c2cccc(C)c2)cc1
[7]
  AC50: 48.3 µM (active)

## COc1cc2cc(Oc3ccc4ccc(=O)oc4c3)c(=O)oc2cc1O[C@@H]1O[C@H](CO)[C@@H](O)[C@H](O)[C@H]1O [DAPHNORIN]
[8]
  IC50: 7.56 µM (active)
[7]
  AC50: 87.2 µM (active)

## O=C(Nc1ccc(OC(F)F)cc1)Nc1cccc(C(F)(F)F)c1
[1]
  AC50: 16.1 µM (active)
[9]
  AC50: 6.99 µM (active)
HEK293 [10]
  IC50: 4.14 µM (inactive)
Streptokinase A
  EC50: > 150 µM (not active)
Streptococcus
  EC50: 44.9 µM (active)
[2]
  AC50: 11 µM (active)
HEK293 [11]
  EC50: 8.15 µM (active)
INS1
  AC50: 6.07 µM (active)
[3]
  AC50: 5.35 µM (active)
[4]
  AC50: 10.5 µM (active)
[5]
  AC50: 5.03 µM (active)
[12]
  EC50: 13.3 µM (active)
HEK293 [13]
  IC50: 6.17 µM (active)
HEK293 [14]
  IC50: 3.04 µM (active)
[15]
  AC50: 10.9 µM (active)
[16]
  AC50: 32 µM (active)

## Cc1cccc(-c2ccc([C@@H]3[C@H](CO)N4CCCCN(CCC(F)(F)F)C[C@@H]34)cc2)c1
[9]
  AC50: 17.7 µM (active)
[17]
  AC50: 0.978 µM (active)
[18]
  AC50: 10.7 µM (active)
[15]
  AC50: 28.8 µM (active)
[16]
  AC50: 14.9 µM (active)

## O=C(NNC(=S)NC(=O)c1cccnc1)c1ccc(F)cc1
Albumin
  IC50: > 94.1 µM (inactive)

## O=C(CN1C(=O)S/C(=C\c2cccs2)C1=O)Nc1ccc(O)cc1C(=O)O
[7]
  AC50: 94.3 µM (active)

## COc1cccc(C(=O)NNC(=O)c2ccc3ccccc3c2O)c1
[19]
  EC50: > 150 µM (inconclusive)
Albumin
  IC50: > 94.1 µM (inactive)
[20]
  EC50: > 38 µM (not active)

## COc1ccccc1NS(=O)(=O)c1cc(NC(=O)/C=C/c2cccs2)ccc1N1CCOCC1
[21]
  EC50: > 91.2 µM (inactive)
[22]
  EC50: > 91.2 µM (inactive)
